Experimental data reported in PubChem BioAssay (NCI).
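96-well plates; 48 h exposure; 5 concentrations. Endpoints by linear interpolation between flanking doses. Not reached: highest tested concentration assigned. GI50 = concentration required for 50% inhibition of growth. At the TGI there is no net growth.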

Tests used:
Experiment in all cases: growth of human tumour cells (NCI), 48 h
IGROV1 ovarian = tested on: IGROV1 ovarian
SW-620 colon = tested on: SW-620 colon
SF-295 CNS = tested on: SF-295 CNS
RXF 393 renal = tested on: RXF 393 renal
HT29 colon = tested on: HT29 colon
SF-539 CNS = tested on: SF-539 CNS
UACC-62 melanoma = tested on: UACC-62 melanoma
ACHN renal = tested on: ACHN renal
SK-MEL-2 melanoma = tested on: SK-MEL-2 melanoma
A549 NSCLC = tested on: A549 NSCLC

SMILES	TGI (IGROV1 ovarian) [µM]	TGI (SW-620 colon) [µM]	TGI (SF-295 CNS) [µM]	TGI (RXF 393 renal) [µM]	TGI (HT29 colon) [µM]	TGI (SF-539 CNS) [µM]	TGI (UACC-62 melanoma) [µM]	TGI (ACHN renal) [µM]	TGI (SK-MEL-2 melanoma) [µM]	TGI (A549 NSCLC) [µM]	GI50 (IGROV1 ovarian) [µM]	GI50 (SW-620 colon) [µM]	GI50 (SF-295 CNS) [µM]	GI50 (RXF 393 renal) [µM]	GI50 (HT29 colon) [µM]	GI50 (SF-539 CNS) [µM]	GI50 (UACC-62 melanoma) [µM]	GI50 (ACHN renal) [µM]	GI50 (SK-MEL-2 melanoma) [µM]	GI50 (A549 NSCLC) [µM]
OC(CC(O)(C(F)(F)Cl)C(F)(F)Cl)c1ccccc1 (centres undefined)	0.0883	> 10	> 10	> 10	> 10	> 10	> 10	> 10	> 10	> 10	–	–	–	–	–	–	–	–	–	–
CCn1ncc2c(=O)n3ncn(-c4ccc(Br)cc4)c3nc21	> 100	> 100	> 100	> 100	> 100	–	> 100	> 100	> 100	> 100	–	–	–	–	–	–	–	–	–	–
CC/C=N\N1C(N)=C(C#N)C(C#N)(C#N)C1CC (centres undefined)	> 100	> 100	> 100	> 100	86.4	80.8	> 100	> 100	> 100	> 100	–	–	–	–	–	–	–	–	–	–
O=[N+]([O-])c1ccc(-c2csc(=[N+]3CCCCC3)s2)cc1	> 100	> 100	> 62.5	> 100	> 100	> 100	> 100	> 100	60.2	> 100	–	–	–	–	–	–	–	–	–	–
CO[P@@]1(=O)O[C@@H](c2ccccc2)[C@H](O)[C@]1(O)c1ccccc1	> 100	> 100	> 100	> 100	> 100	> 100	> 100	> 100	> 100	> 100	–	–	–	–	–	–	–	–	–	–
N#Cc1c(-c2ccc([N+](=O)[O-])cc2)c(C#N)c(=O)n(NS(=O)(=O)c2ccccc2)c1O	> 100	> 100	> 100	> 100	> 100	> 100	> 100	> 100	> 100	> 100	–	–	–	–	–	–	–	–	–	–
CN(C)CCNCCCNc1c2ccccc2nc2cccc([N+](=O)[O-])c12	0.173	1.34	0.0741	–	< 0.0277	0.263	0.236	0.0312	0.0523	0.0999	–	–	–	–	–	–	–	–	–	–
CC(C)=CCC[C@@H](C)C1=C(Nc2ccccc2F)C(O)=C(C)C(=O)C1=O	> 39.1	> 69.1	> 31.5	> 64.1	24.3	59.8	22.6	14.3	42.1	> 44.9	–	–	–	–	–	–	–	–	–	–
Cc1cc(S(=O)(=O)N=C2Nc3cccc4cccc(c34)N2)c(S)cc1Cl	> 100	> 100	> 100	> 100	–	> 100	> 100	> 100	> 100	> 100	–	–	–	–	–	–	–	–	–	–
CCOC(=O)c1c(-c2ccccc2)c(OC)cn1C	> 10	> 10	> 10	> 10	> 10	> 10	> 10	> 10	> 10	> 10	–	–	–	–	–	–	–	–	–	–
CC(=O)/C(=N\Nc1ccc(Cl)cc1)C(C)=Nc1ccc(C)cc1	> 100	> 100	> 100	95.8	61.3	–	> 100	61.3	40	> 100	–	–	–	–	–	–	–	–	–	–
NC(=O)NN=C1Cc2ccccc2C1	> 100	> 100	> 100	> 100	> 100	> 100	> 100	> 100	> 100	> 100	–	–	–	–	–	–	–	–	–	–
O=C1CSC(c2c[nH]c3ccccc23)N1c1ccc(Cl)cc1Cl (centres undefined)	> 100	> 100	> 100	> 100	> 100	> 100	> 100	–	–	> 100	–	–	–	–	–	–	–	–	–	–
O=C1c2cc3c(cc2-c2c1c1ccc(Cl)cc1c(=O)n2CCCn1ccnc1)OCO3	> 100	> 100	10	0.0518	> 100	0.0649	0.0296	1.09	> 100	> 100	0.0656	< 0.01	< 0.01	< 0.01	0.0174	< 0.01	< 0.01	< 0.01	0.649	0.0136
Cc1cc(-c2cc(C(C)(C)C)c(O)c(C(C)(C)C)c2)c(C)cc1-c1cc(C(C)(C)C)c(O)c(C(C)(C)C)c1	> 100	> 100	> 100	–	> 100	> 100	> 100	> 100	> 100	> 100	–	–	–	–	–	–	–	–	–	–
NC(=O)C1CCN(Cc2c(Cl)c(Cl)c(CN3CCC(C(N)=O)CC3)c(Cl)c2Cl)CC1	–	> 100	75.3	> 100	> 100	70.7	> 100	> 100	> 100	> 100	–	–	–	–	–	–	–	–	–	–
O=C(c1ccc([N+](=O)[O-])cc1)N1CCCC1	> 100	> 100	> 100	> 100	> 100	> 100	> 100	> 100	–	> 100	–	–	–	–	–	–	–	–	–	–
CS(=O)(=O)Nc1ccc2ccccc2c1	> 100	> 100	> 100	–	> 100	> 100	> 100	> 100	> 100	> 100	–	–	–	–	–	–	–	–	–	–
CC[C@H](NC(=O)OC(C)(C)C)C(=O)NCP(=O)(OCc1ccc([N+](=O)[O-])cc1)OCc1ccc([N+](=O)[O-])cc1	> 100	> 100	55.7	–	51.8	90	51.9	69.7	> 100	> 100	–	–	–	–	–	–	–	–	–	–
CN1C2=Nc3n(c4ccccc4[n+]3C)CN2c2ccccc21	> 100	> 100	> 100	–	> 100	> 100	42.6	> 100	41.8	> 100	–	–	–	–	–	–	–	–	–	–
CCOC(=O)c1csc(NC(=O)CCN2CCN(C)CC2)n1	–	> 100	> 100	> 100	> 100	> 100	> 100	> 100	> 100	> 100	–	–	–	–	–	–	–	–	–	–
CCOC(=O)C(NC(=O)c1cccc(Cl)c1)(Nc1cccc(C)c1)C(F)(F)F (centres undefined)	34.8	37.2	–	26.2	27.8	32.7	28.5	29.8	31.8	> 100	–	–	–	–	–	–	–	–	–	–

SMILES	TGI (IGROV1 ovarian) [µM]	TGI (SW-620 colon) [µM]	TGI (SF-295 CNS) [µM]	TGI (RXF 393 renal) [µM]	TGI (HT29 colon) [µM]	TGI (SF-539 CNS) [µM]	TGI (UACC-62 melanoma) [µM]	TGI (ACHN renal) [µM]	TGI (SK-MEL-2 melanoma) [µM]	TGI (A549 NSCLC) [µM]	GI50 (IGROV1 ovarian) [µM]	GI50 (SW-620 colon) [µM]	GI50 (SF-295 CNS) [µM]	GI50 (RXF 393 renal) [µM]	GI50 (HT29 colon) [µM]	GI50 (SF-539 CNS) [µM]	GI50 (UACC-62 melanoma) [µM]	GI50 (ACHN renal) [µM]	GI50 (SK-MEL-2 melanoma) [µM]	GI50 (A549 NSCLC) [µM]
CCCn1cc2c3c(cccc31)C1C=C(C)CN(C)C1C2 (centres undefined)	60.4	62.4	55.2	52.7	42.7	59.5	55.7	–	63.4	70.5	–	–	–	–	–	–	–	–	–	–
COc1cc2c(c(OC)c1)[C@H](C)N(Cc1ccccc1)C(C)C2 (some centres undefined)	> 100	> 100	> 100	–	75.2	48.4	> 100	> 100	–	> 100	–	–	–	–	–	–	–	–	–	–
c1cncc(CSc2nc3ccccc3nc2-c2cccs2)c1	–	> 100	> 100	–	> 100	> 100	–	> 100	> 100	> 100	–	–	–	–	–	–	–	–	–	–
C=C(C)[C@H]1CC23C(=O)[C@@](C)(C[C@H]2C1(C)C)C(=O)C(C(=O)C(C)C)=C3O	32.7	34.5	36.7	29	26.4	–	29.8	30.4	33.6	57.9	–	–	–	–	–	–	–	–	–	–
COc1ccc2c(c1OC)C(=O)N1C2=Cc2c(cc3c(c2OC)OCO3)CC1N(C)C (centres undefined)	> 100	> 100	> 100	> 100	–	> 100	> 100	> 100	> 100	> 100	–	–	–	–	–	–	–	–	–	–
CCCCNC(=O)Cn1c2ccc(Br)cc2c2nc3ccccc3nc21	> 100	> 100	> 100	> 100	> 100	–	> 100	> 100	> 100	> 100	–	–	–	–	–	–	–	–	–	–
CC(C)(C)/C(O)=C\c1nc2cc(F)c(F)cc2[nH]c1=O	> 100	> 100	> 100	> 100	> 100	> 100	> 100	> 100	> 100	–	–	–	–	–	–	–	–	–	–	–
CSc1nc(=O)c2nc(-c3cccs3)c(-c3cccs3)nc2n1C	> 100	> 100	> 100	59.6	> 100	–	> 100	> 100	> 100	> 100	–	–	–	–	–	–	–	–	–	–
CNC(=S)N1CCN(C(C)=O)C1=S	> 100	> 100	> 100	–	> 100	52.8	> 100	> 100	5.36	> 100	–	–	–	–	–	–	–	–	–	–
O=C(Nc1nn(C(=O)c2cccnc2)c(=O)s1)c1ccc(Cl)cc1	–	> 100	> 100	93.8	> 100	95.4	> 100	> 100	> 100	> 100	–	–	–	–	–	–	–	–	–	–
NCCCCNCCCN1CCOC1=O	> 100	> 100	> 100	–	> 100	> 100	> 100	> 100	> 100	> 100	–	–	–	–	–	–	–	–	–	–
COc1cc(N=Nc2ccc(OC)c(S(=O)(=O)O)c2)c(C)cc1N=Nc1ccc(/C=C/c2ccc(N=[N+]([O-])c3ccc(/C=C/c4ccc(N=Nc5cc(C)c(N=Nc6ccc(OC)c(S(=O)(=O)O)c6)cc5OC)cc4S(=O)(=O)O)c(S(=O)(=O)O)c3)cc2S(=O)(=O)O)c(S(=O)(=O)O)c1	> 100	> 100	> 100	> 100	> 100	> 100	> 100	–	> 100	> 100	–	–	–	–	–	–	–	–	–	–
CN1c2ccccc2C2=C(c3ccccc3)CC[C@@H](C(=O)N3C4CC5CC[C@@]4(CS3(=O)=O)C5(C)C)[C@@H]21 (some centres undefined)	> 100	> 100	> 100	–	> 100	> 100	> 100	> 100	–	> 100	–	–	–	–	–	–	–	–	–	–
COc1ccc([C@]23CCC4(OCC(C)(C)CO4)[C@H]4CON(O[C@H](O[C@@H]5CCCCC5C(C)(C)c5ccccc5)C2)[C@@H]43)cc1OC (some centres undefined)	> 100	> 100	> 100	> 100	> 100	76.5	> 100	–	> 100	> 100	–	–	–	–	–	–	–	–	–	–
CCN(CC)C(=S)N/N=C(/c1ccccc1)c1ccccn1	6.72	> 49.4	25.4	8.63	> 40.1	4.24	–	5.39	26.2	> 39.7	–	–	–	–	–	–	–	–	–	–
CC(=O)Oc1ccc2c(-c3ccccc3)c(Oc3ccc(Cl)cc3)c(=O)oc2c1	29.4	39.4	32.4	33.2	39.8	31.1	–	30.5	–	27.6	–	–	–	–	–	–	–	–	–	–
O=c1c2c3c(sc2nc2n1N=C(c1ccc(Br)cc1)CS2)CCCC3	> 100	> 100	> 100	> 100	> 100	> 100	> 100	> 100	–	> 100	–	–	–	–	–	–	–	–	–	–
Cc1cc(-c2ccccc2)nc2oc(=O)n(C)c12	> 100	> 100	> 100	> 100	> 100	–	> 100	> 100	> 100	> 100	–	–	–	–	–	–	–	–	–	–
O=C1c2cc3c(cc2CC12Cc1ccc4c(c1C2=O)CCC4)CCC3 (centres undefined)	> 100	> 100	> 100	> 100	> 100	> 100	–	> 100	> 100	> 100	–	–	–	–	–	–	–	–	–	–
Cc1ccc(C)c(COCCOCn2cc(N3CCOCC3)c(=O)[nH]c2=O)c1	> 100	> 100	> 100	> 100	–	> 100	> 100	> 100	> 100	> 100	–	–	–	–	–	–	–	–	–	–
O=c1c2cc([N+](=O)[O-])ccc2oc2nc3n(c(=O)c12)CCCS3	> 100	> 100	> 100	> 100	–	> 100	> 100	> 100	> 100	> 100	–	–	–	–	–	–	–	–	–	–
O=c1c2ccc(Cl)cc2oc2c(CNc3ccc(S(=O)(=O)Nc4ncccn4)cc3)cccc12	> 100	> 100	> 100	–	> 100	> 100	> 100	> 100	> 100	> 100	–	–	–	–	–	–	–	–	–	–
